We go through 2 compounds from publication PMC10004267, “Resveratrol, a New Allosteric Effector of Hemoglobin, Enhances Oxygen Supply Efficiency and Improves Adaption to Acute Severe Hypoxia” (Molecules, 2023).

In experiment [1] the target is T1, hemoglobin of adult (HbA) (Homo sapiens, UniProt P68871).
T1 construct: gene HBB; HbA tetramer purified from human whole blood; with hemoglobin subunit alpha (HBA1)
The experiment is described as follows: SPR (OpenSPR, HbA immobilized), control compound. Type of experiment: binding.

Experiment [2] deals with T2, hemoglobin of adult (HbA) (Homo sapiens, UniProt P68871+P69905).
T2 construct: gene HBA1; HbA tetramer purified from human whole blood; with hemoglobin subunit beta (HBB)
The experiment is described as follows: SPR (OpenSPR, HbA immobilized on COOH chip, one-to-one model); supported by thermal shift (Tm1) and P50 shift. Type of experiment: binding.

T2 sequence (P69905 2-142): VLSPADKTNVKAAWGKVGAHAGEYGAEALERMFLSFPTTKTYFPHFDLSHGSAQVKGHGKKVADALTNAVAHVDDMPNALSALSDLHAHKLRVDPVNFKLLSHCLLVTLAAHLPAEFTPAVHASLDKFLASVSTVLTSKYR
T2 sequence (P68871 2-147): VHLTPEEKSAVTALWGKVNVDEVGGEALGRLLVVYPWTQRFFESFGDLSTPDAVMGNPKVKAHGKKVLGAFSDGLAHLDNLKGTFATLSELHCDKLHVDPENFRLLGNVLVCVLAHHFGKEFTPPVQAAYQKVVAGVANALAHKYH
T1 sequence (P68871 2-147): as above
T1 sequence (P69905 2-142 partner): as the sequence (P69905 2-142) above

By Kd is commonly meant the equilibrium constant for the complex coming apart. In experiment [1], `O=C(O)C(COP(=O)(O)O)OP(=O)(O)O` (centres unmarked) [2,3-DPG, 2,3-Diphosphoglycerate] showed a Kd of 462 µM.

For `Oc1ccc(/C=C/c2cc(O)cc(O)c2)cc1` [RSV, 3,4′,5-trihydroxy-trans-stilbene], the Kd in experiment [2] amounted to 48.6 µM.
